Test results taken from PubChem BioAssay (NCI).
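Each compound was tested at five concentrations against cells in 96-well plates for 48 hours. GI50: concentration for 50% inhibition of growth. At the TGI there is no net growth.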

Assays:
Experiment in all cases: inhibition of tumour cell growth, NCI panel, 48 h
[1] = system: CAKI-1 renal
[2] = system: SN12C renal
[3] = system: M14 melanoma
[4] = system: MDA-MB-231 breast
[5] = system: EKVX NSCLC
[6] = system: A498 renal
[7] = system: UACC-62 melanoma
[8] = system: SNB-19 CNS
[9] = system: SK-MEL-28 melanoma
[10] = system: HCC-2998 colon
[11] = system: OVCAR-4 ovarian
[12] = system: MOLT-4 leukemia
[13] = system: HS 578T breast
[14] = system: 786-0 renal
[15] = system: SF-295 CNS
[16] = system: UO-31 renal
[17] = system: OVCAR-5 ovarian
[18] = system: T-47D breast
[19] = system: ACHN renal
[20] = system: HL-60(TB) leukemia
[21] = system: K-562 leukemia
[22] = system: SK-MEL-2 melanoma
[23] = system: HT29 colon
[24] = system: KM12 colon
[25] = system: NCI/ADR-RES ovarian
[26] = system: NCI-H226 lung
[27] = system: U251 CNS
[28] = system: OVCAR-8 ovarian
[29] = system: IGROV1 ovarian
[30] = system: SF-268 CNS
[31] = system: NCI-H460 lung
[32] = system: CCRF-CEM leukemia
[33] = system: SK-OV-3 ovarian
[34] = system: RXF 393 renal
[35] = system: MCF7 breast
[36] = system: DU-145 prostate
[37] = system: OVCAR-3 ovarian
[38] = system: TK-10 renal
[39] = system: SNB-75 CNS
[40] = system: A549 NSCLC
[41] = system: HCT-15 colon
[42] = system: RPMI-8226 leukemia
[43] = system: BT-549 breast
[44] = system: SW-620 colon
[45] = system: SK-MEL-5 melanoma
[46] = system: PC-3 prostate
[47] = system: UACC-257 melanoma
[48] = system: HOP-62 NSCLC
[49] = system: COLO 205 colon
[50] = system: HCT-116 colon
[51] = system: NCI-H522 lung
[52] = system: SF-539 CNS
[53] = system: LOX IMVI melanoma
[54] = system: MDA-MB-435

`N#Cc1cc2c(cc1Cl)SC(=Nc1ccccc1)N(S(=O)(=O)c1ccc(Cl)cc1)S2(=O)=O` showed a GI50 [1] of 12.3 µM, a TGI [1] of 27.2 µM and a GI50 [2] of 17.2 µM. For the same compound, the TGI [2] was 37.1 µM, the GI50 [3] was 10 µM and the TGI [3] was 24.8 µM. The GI50 [4] was 14.5 µM, the TGI [4] was 34.5 µM and the GI50 [5] was 16.9 µM. For the same compound, the TGI [5] was 34.4 µM, the GI50 [6] was 16.4 µM and the TGI [6] was 32.8 µM. For the same compound, the GI50 [7] was 14.7 µM, the TGI [7] was 29 µM and the GI50 [8] was 35.5 µM. The TGI [8] was > 100 µM, the GI50 [9] was 17.1 µM and the TGI [9] was 37.7 µM. For the same compound, the GI50 [10] was 17.8 µM, the TGI [10] was 33 µM and the GI50 [11] was 19 µM. The TGI [11] was 42.2 µM, the GI50 [12] was 28.7 µM and the TGI [12] was > 100 µM. It also gave a GI50 [13] of 21.6 µM, a TGI [13] of 57.8 µM and a GI50 [14] of 14.2 µM. It also gave a TGI [14] of 28.6 µM, a GI50 [15] of 22.5 µM and a TGI [15] of 72.7 µM. The GI50 [16] was 9.84 µM, the TGI [16] was 26.9 µM and the GI50 [17] was 16.8 µM. For the same compound, the TGI [17] was 32.9 µM, the GI50 [18] was 19.9 µM and the TGI [18] was 64.1 µM. For the same compound, the GI50 [19] was 17.7 µM, the TGI [19] was 33.2 µM and the GI50 [20] was > 100 µM. For the same compound, the TGI [20] was > 100 µM, the GI50 [21] was 50.5 µM and the TGI [21] was > 100 µM. It also gave a GI50 [22] of 3.61 µM, a TGI [22] of 16.8 µM and a GI50 [23] of 31 µM. For the same compound, the TGI [23] was > 100 µM, the GI50 [24] was 14 µM and the TGI [24] was 28.1 µM. It also gave a GI50 [25] of 18 µM, a TGI [25] of 44.6 µM and a GI50 [26] of 17.7 µM. For the same compound, the TGI [26] was 42.9 µM, the GI50 [27] was 17.7 µM and the TGI [27] was 36.6 µM. For the same compound, the GI50 [28] was 18 µM, the TGI [28] was 51 µM and the GI50 [29] was 5.56 µM. It also gave a TGI [29] of 21.2 µM, a GI50 [30] of 16.9 µM and a TGI [30] of 41.6 µM. The GI50 [31] was 20.8 µM, the TGI [31] was 53.5 µM and the GI50 [32] was 20.6 µM. The TGI [32] was 39.1 µM, the GI50 [33] was 20 µM and the TGI [33] was 40.8 µM. The GI50 [34] was 5.68 µM, the TGI [34] was 30.1 µM and the GI50 [35] was 14.8 µM. It also gave a TGI [35] of 37.6 µM, a GI50 [36] of 16.6 µM and a TGI [36] of 35.7 µM. For the same compound, the GI50 [37] was 4.95 µM, the TGI [37] was 17.9 µM and the GI50 [38] was 656 nM. For the same compound, the TGI [38] was 3.64 µM, the GI50 [39] was 18.9 µM and the TGI [39] was 42.2 µM. The GI50 [40] was 20.3 µM, the TGI [40] was 54.5 µM and the GI50 [41] was 15.2 µM. For the same compound, the TGI [41] was 33.6 µM, the GI50 [42] was 10.6 µM and the TGI [42] was 51.7 µM. It also gave a GI50 [43] of 13.4 µM, a TGI [43] of 30.4 µM and a GI50 [44] of 17.4 µM. The TGI [44] was 39.5 µM, the GI50 [45] was 13.4 µM and the TGI [45] was 28.7 µM. For the same compound, the GI50 [46] was 17.5 µM, the TGI [46] was 38.2 µM and the GI50 [47] was 18.6 µM. It also gave a TGI [47] of 40.4 µM, a GI50 [48] of 13.5 µM and a TGI [48] of 29.9 µM. For the same compound, the GI50 [49] was 32 µM, the TGI [49] was > 100 µM and the GI50 [50] was 3.78 µM. The TGI [50] was 18 µM, the GI50 [51] was 3.29 µM and the TGI [51] was 17.3 µM. For the same compound, the GI50 [52] was 19.8 µM, the TGI [52] was 39.8 µM and the GI50 [53] was 10.8 µM. It also gave a TGI [53] of 28.8 µM, a GI50 [54] of 13 µM and a TGI [54] of 27.8 µM.
